What was measured:
purified, active Btk = purified, active Btk (Homo sapiens, UniProt Q06187); experiment: Btk labeling in vitro (purified enzyme, SDS-PAGE, fluorescent scan)
c-met = c-met (Homo sapiens, UniProt P08581); experiment: TR-FRET kinase assay, c-met; assay type: biochemical; settings: ATP at Km
Procedure: (§1) Kinase activity for Btk, Abl, c-met, ITK, LCK, and EGFR was determined using a time-resolved fluorescence resonance energy transfer (TR-FRET) methodology. Measurements were performed in a reaction volume of 50 μl using 96-well assay plates. […] The reaction was quenched by the addition of 1.2 equivalents of EDTA (relative to divalent cation) in 25 μL of 1× Lance buffer (Perkin-Elmer). Streptavidin-APC (Perkin-Elmer) and Eu-labeled p-Tyr100 antibody (Perkin-Elmer) in 1× Lance buffer were added in a 25 μL volume to give final concentrations of 100 nM and 2.5 nM, respectively, and the mixture was allowed to incubate for one hour. The TR-FRET signal was measured on a multimode plate reader with an excitation wavelength of 330 nm and detection wavelengths of 615 and 665 nm. Activity was determined by the ratio of the fluorescence at 665 nm to that at 615 nm. For each compound, enzyme activity was measured at various concentrations of compound. Negative control reactions were performed in the absence of inhibitor in replicates of six, and two no-enzyme controls were used to determine baseline fluorescence levels. Inhibition constants {Ki(app)} were obtained using the program BatchKi (23). […]; for all kinases, [ATP]=KmATP, [Btk]total=0.5 nM and [Lck]total=6 nM.

[1] = system: intracellular calcium mobilization in Ramos cells following B cell receptor activation; experiment: Calcium flux assay in Ramos B-cells stimulated with anti-human IgM; assay type: cell-based; settings: anti-IgM stimulation, read-out: IC50 Ca2+ flux (calcium mobilization)
Procedure: Calcium flux assay was performed according to the protocol described by the manufacturer (Molecular Devices). Briefly, actively growing Ramos B-cells in RPMI medium supplemented with 10% FBS were washed and re-plated in low serum medium to approximately 5×10^5 cells per 100 μl per well in 96-well plate. Compounds to be assayed were dissolved in DMSO, diluted to appropriate concentrations in low serum medium (from 0 to 10 μM final concentrations at a stepwise dilution factor of 0.3), added to each well (the final DMSO concentration was 0.01% in each well) and incubated at 37° in a 5% CO2 incubator for 1 hour. 100 μl calcium assay dye (Calcium 3 assay kit, Molecular Devices) was then added to each well and the incubation was continued for one hour. Compound-treated cells were stimulated with a goat anti-human IgM antibody (80 μg/ml) and the calcium mobilization signal was read in a Flexstation II 384 (Molecular Devices) at excitation and emission wavelengths of 485 nm and 538 nm, respectively, for 200 seconds. The relative fluorescence units (RFU) and the fifty percent inhibition values (IC50%) were recorded and analyzed using the SoftMax program (Molecular Devices).

Abl = Abl (Homo sapiens, UniProt P00519); experiment: TR-FRET kinase assay, Abl; assay type: biochemical; settings: ATP at Km
Sequence of Abl (P00519 whole entry, species assumed): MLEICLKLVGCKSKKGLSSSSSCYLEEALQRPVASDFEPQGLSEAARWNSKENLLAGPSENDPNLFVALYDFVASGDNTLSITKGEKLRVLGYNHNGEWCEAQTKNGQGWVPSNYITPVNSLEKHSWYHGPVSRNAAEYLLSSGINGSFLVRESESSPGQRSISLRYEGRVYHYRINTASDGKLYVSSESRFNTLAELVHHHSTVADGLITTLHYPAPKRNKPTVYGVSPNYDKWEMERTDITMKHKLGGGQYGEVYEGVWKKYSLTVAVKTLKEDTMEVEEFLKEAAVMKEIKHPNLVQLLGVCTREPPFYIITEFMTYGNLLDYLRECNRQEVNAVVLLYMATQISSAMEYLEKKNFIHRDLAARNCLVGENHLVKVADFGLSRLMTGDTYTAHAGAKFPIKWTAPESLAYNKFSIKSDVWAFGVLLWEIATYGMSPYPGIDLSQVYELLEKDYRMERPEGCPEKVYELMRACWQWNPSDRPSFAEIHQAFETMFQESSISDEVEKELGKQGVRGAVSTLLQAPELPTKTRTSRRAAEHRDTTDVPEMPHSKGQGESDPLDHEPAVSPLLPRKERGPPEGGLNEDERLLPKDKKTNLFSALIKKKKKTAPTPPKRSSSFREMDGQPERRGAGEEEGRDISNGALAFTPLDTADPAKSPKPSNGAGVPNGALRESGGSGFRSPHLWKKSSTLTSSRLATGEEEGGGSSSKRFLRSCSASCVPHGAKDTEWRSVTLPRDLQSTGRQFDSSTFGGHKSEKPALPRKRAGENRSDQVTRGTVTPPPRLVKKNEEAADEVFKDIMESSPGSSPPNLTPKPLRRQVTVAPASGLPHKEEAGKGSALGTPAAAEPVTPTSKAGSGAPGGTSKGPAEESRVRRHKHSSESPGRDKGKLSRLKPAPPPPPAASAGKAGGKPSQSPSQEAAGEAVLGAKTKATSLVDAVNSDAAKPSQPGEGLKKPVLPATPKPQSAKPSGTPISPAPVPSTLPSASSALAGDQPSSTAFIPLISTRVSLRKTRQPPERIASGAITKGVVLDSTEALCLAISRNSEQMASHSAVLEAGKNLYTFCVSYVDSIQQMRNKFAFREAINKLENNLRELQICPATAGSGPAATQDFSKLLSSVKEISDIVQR
Procedure: (§2) Kinase activity for Btk, Abl, c-met, ITK, LCK, and EGFR was determined using a time-resolved fluorescence resonance energy transfer (TR-FRET) methodology. Measurements were performed in a reaction volume of 50 μl using 96-well assay plates. […] For each compound, enzyme activity was measured at various concentrations of compound. Negative control reactions were performed in the absence of inhibitor in replicates of six, and two no-enzyme controls were used to determine baseline fluorescence levels. Inhibition constants {Ki(app)} were obtained using the program BatchKi (23).

EGFR = EGFR (Homo sapiens, UniProt P00533); experiment: TR-FRET kinase assay, EGFR; assay type: biochemical; settings: ATP at Km
Sequence of EGFR (P00533 25-1210, species assumed): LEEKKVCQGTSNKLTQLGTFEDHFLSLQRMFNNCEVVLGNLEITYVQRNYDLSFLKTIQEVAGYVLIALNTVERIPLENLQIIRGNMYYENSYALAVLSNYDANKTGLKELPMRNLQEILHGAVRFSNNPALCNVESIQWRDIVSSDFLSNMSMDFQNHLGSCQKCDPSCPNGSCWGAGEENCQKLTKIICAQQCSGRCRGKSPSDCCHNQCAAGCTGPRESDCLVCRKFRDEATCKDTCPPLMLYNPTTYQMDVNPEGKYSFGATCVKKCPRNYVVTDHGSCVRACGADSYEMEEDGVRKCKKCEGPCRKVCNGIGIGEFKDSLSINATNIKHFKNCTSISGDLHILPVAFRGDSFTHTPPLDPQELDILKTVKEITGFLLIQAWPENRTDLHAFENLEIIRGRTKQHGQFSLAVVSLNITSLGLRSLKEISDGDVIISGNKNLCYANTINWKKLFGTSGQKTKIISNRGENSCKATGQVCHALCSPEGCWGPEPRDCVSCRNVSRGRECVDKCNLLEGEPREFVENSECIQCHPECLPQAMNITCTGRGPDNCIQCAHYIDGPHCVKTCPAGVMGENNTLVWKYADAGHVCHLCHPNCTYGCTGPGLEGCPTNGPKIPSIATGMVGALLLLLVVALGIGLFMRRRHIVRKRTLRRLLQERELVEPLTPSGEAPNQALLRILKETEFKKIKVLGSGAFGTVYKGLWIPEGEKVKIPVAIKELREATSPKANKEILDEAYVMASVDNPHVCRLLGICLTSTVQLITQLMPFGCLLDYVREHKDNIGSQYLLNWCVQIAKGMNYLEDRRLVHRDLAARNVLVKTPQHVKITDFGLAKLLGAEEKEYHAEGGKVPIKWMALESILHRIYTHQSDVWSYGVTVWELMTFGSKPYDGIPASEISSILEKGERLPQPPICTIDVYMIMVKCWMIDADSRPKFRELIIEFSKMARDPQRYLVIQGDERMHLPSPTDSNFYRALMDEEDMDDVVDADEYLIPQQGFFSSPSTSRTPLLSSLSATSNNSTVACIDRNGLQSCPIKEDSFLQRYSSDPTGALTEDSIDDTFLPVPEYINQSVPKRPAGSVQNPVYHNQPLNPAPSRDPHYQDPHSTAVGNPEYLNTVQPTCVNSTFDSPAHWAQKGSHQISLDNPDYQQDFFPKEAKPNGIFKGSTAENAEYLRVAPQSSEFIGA
Procedure: as §1

Lck = Lck (Homo sapiens, UniProt P06239); experiment: TR-FRET kinase assay, Lck; assay type: biochemical; settings: ATP at Km
Sequence of Lck (P06239 whole entry, species assumed): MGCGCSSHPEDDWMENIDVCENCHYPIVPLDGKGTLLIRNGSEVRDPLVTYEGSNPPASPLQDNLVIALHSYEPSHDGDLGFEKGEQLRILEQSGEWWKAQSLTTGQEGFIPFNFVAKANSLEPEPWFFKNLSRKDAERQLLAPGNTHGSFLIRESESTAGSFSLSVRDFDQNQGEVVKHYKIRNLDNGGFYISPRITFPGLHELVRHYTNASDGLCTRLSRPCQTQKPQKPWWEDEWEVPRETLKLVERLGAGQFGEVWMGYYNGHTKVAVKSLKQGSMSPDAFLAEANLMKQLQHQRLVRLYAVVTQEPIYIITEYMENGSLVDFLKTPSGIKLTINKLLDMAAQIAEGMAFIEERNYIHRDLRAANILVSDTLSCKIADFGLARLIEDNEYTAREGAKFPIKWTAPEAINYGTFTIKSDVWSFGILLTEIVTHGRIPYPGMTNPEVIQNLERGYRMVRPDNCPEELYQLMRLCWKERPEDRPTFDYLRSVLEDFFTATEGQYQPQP
Procedure: as §2

Btk [2] = target: T1, Btk (Homo sapiens, UniProt Q06187); experiment: Inhibition of PLCγ2 phosphorylation at Tyr 1217 in 293H cells (ELISA); assay type: cell-based; settings: Tyr 1217, ELISA, read-out: IC50 for probe inhibition of PLCγ2 phosphorylation
T1 sequence (Q06187 whole entry): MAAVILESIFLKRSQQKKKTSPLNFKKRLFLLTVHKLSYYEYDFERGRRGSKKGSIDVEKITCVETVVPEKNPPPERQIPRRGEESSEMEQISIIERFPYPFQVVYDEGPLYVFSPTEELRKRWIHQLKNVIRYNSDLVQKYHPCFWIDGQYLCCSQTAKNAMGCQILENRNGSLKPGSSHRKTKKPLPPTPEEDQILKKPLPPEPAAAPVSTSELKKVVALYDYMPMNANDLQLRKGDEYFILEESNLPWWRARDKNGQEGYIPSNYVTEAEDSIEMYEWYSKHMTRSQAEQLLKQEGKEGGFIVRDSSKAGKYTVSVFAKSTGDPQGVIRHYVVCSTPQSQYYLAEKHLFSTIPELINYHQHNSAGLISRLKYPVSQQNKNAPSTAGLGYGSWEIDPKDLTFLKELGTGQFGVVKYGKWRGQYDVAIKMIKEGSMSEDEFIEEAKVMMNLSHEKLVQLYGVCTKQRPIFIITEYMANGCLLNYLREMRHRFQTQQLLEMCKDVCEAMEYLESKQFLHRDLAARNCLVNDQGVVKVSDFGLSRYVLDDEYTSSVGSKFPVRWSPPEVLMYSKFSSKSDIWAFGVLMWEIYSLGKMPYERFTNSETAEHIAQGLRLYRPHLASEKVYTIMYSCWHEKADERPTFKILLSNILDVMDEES

Btk [3] = target: T1, Btk; experiment: TR-FRET kinase assay, Btk; assay type: biochemical; set-up: His6 (N); purchased Upstate Biochem
Procedure: as §1

Btk [4] = target: T1, Btk; experiment: Probe labeling of endogenous Btk in cultured B cells (DOHH2)
Procedure: In some embodiments, to determine if a test Btk probe detects endogenous levels of Btk activity, label cultured B cells such as Ramos or DOHH2 B cells were used.
Cells were then harvested and lysed by incubation in 50 μl of cell lysis buffer (CelLytic M, Sigma) supplemented with 1× protease inhibitor and 1× phosphatase inhibitor cocktails (Calbiochem) for 10 min on ice. The protein concentrations in cell lysates were determined by Bradford protein assay (Pierce). Lysates equivalent to 20 μg of total protein were fractionated on 4 to 20% SDS-gradient gels (Invitrogen), and scanned using a Typhoon densitometer as described above. Labeling of Ramos cells was carried out in identical fashion except RPMI medium was used.

Btk [5] = target: T1, Btk; experiment: Probe labeling of Btk in 293H cells stably co-expressing Btk and PLCγ2
[6] = target: Btk Cys 481 to Ala mutation (Homo sapiens, UniProt Q06187, C481A); experiment: Probe labeling in 293H cells transiently co-expressing PLCγ2 and Btk C481A; settings: transient co-expression with PLCγ2
Sequence of Btk Cys 481 to Ala mutation (Q06187 whole entry C481A): as the sequence (Q06187 whole entry) above, with C481A counted along it
Procedure: (§3) The selected co-expressor cell line was routinely maintained in D-MEM containing 10% FBS, 1× non-essential amino acids, 1× antibiotics, and supplemented with 200 μg/ml G418 and 25 μg/ml blastocidin. […] Cells were then harvested and lysed by incubation in 50 μl of cell lysis buffer (CelLytic M, Sigma) supplemented with 1× protease inhibitor and 1× phosphatase inhibitor cocktails (Calbiochem) for 10 min on ice. The protein concentrations in cell lysates were determined by Bradford protein assay (Pierce). Lysates equivalent to 20 μg of total protein were fractionated on 4 to 20% SDS-gradient gels (Invitrogen), and scanned using a Typhoon densitometer as described above. Labeling of Ramos cells was carried out in identical fashion except RPMI medium was used.

[7] = target: Btk Lys 430 to Ala mutant (Homo sapiens, UniProt Q06187, K430A); experiment: Probe labeling in 293H cells transiently co-expressing PLCγ2 and Btk K430A; settings: transient co-expression with PLCγ2
Sequence of Btk Lys 430 to Ala mutant (Q06187 whole entry K430A): as the sequence (Q06187 whole entry) above, with K430A counted along it
Procedure: as §3

[8] = target: Btk Tyr 551 to Ala mutant (Homo sapiens, UniProt Q06187, Y551A); experiment: Probe labeling in 293H cells transiently co-expressing PLCγ2 and Btk Y551A; settings: transient co-expression with PLCγ2
Sequence of Btk Tyr 551 to Ala mutant (Q06187 whole entry Y551A): as the sequence (Q06187 whole entry) above, with Y551A counted along it
Procedure: as §3

Sequence of c-met (P08581 25-1390): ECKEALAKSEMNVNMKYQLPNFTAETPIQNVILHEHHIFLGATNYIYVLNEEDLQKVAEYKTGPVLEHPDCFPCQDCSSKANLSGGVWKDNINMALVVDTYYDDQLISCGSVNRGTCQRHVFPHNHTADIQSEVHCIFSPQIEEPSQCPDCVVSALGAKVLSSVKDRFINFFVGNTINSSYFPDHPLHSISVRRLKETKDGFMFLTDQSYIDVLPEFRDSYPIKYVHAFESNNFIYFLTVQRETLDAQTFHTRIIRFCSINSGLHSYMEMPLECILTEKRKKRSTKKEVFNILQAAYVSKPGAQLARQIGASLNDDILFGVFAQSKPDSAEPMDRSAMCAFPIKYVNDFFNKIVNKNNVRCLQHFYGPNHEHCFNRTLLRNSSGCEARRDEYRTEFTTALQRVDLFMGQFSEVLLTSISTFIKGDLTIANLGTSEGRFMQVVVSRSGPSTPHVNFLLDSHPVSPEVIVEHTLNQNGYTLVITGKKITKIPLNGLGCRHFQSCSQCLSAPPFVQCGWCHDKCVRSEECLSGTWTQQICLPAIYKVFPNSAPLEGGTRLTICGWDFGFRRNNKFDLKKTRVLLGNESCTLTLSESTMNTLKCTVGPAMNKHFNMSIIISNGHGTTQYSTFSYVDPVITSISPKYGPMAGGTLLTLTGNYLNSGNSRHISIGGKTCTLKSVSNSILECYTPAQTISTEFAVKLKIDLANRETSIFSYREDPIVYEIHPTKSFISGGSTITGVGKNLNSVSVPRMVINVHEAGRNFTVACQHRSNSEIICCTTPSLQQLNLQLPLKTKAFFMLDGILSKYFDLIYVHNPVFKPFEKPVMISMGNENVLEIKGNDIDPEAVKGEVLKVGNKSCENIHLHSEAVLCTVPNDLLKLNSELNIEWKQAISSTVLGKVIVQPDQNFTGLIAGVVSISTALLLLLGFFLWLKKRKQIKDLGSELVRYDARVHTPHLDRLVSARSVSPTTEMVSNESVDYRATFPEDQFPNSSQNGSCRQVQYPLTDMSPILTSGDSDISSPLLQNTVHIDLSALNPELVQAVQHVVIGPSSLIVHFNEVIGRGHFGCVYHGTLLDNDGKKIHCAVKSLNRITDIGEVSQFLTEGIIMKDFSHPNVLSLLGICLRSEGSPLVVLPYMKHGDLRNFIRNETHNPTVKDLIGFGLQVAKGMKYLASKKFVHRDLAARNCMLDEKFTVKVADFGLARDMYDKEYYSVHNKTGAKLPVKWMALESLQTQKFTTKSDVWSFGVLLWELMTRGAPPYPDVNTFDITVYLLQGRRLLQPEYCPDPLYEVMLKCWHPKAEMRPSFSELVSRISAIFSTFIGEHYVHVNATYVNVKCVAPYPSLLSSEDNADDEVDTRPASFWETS
Sequence of purified, active Btk (Q06187 whole entry): as the sequence (Q06187 whole entry) above

Effect of pre-incubation on Compound 3 labeling of Btk (purified, active Btk; pre-incubation with 1 μM Compound 2 or 0.5 mM ATPγS)	IC50 (c-met)	IC50 [1]	IC50 (Abl)	IC50 (EGFR)	IC50 (Lck)	IC50 (Btk [2])	IC50 (Btk [3]; ATP at Km, read-out: IC50 Btk)	IC50 (Btk [3]; read-out: IC50 against Btk)	EC50 (Btk [4])	Probe concentration at which labeling of Btk reached saturation (purified, active Btk; 1 μg (0.13 μM) purified Btk, 1 hour at 37° C.)	EC50 (Btk [5])	Probe labeling of Btk C481A mutant [6]	Probe labeling of Btk K430A mutant [7]	Probe labeling of Btk Y551A mutant [8]	Structure (SMILES)
substantially reduced															Nc1ncnc2c1ncn2[C@@H]1O[C@H](COP(=O)(O)OP(=O)(O)OP(O)(O)=S)[C@@H](O)[C@H]1O [ATP-γ-S, reference compound]
	35000 nM	10 nM													C=CC(=O)N1CCC[C@@H](n2nc(-c3ccc(Oc4ccccc4)cc3)c3c(N)ncnc32)C1 [Compound 2]
	100000 nM	230 nM	300 nM	2900 nM	240 nM	300 nM	89 nM	90 nM	~200 nM	1 µM	~200 nM	abrogated labeling	no effect on probe labeling	also labeled	CC1=CC(C)=[N+]2C1=Cc1ccc(CCC(=O)NCCN3CCN(C/C=C/C(=O)N4CCC[C@@H](n5nc(-c6ccc(Oc7ccccc7)cc6)c6c(N)ncnc65)C4)CC3)n1[B-]2(F)F [Compound 3]
